As usually defined, the melting point is the temperature, or range, at which the solid turns liquid.

For the compound `N#CCN(CC#N)C(=O)CCCl`, the melting point is 62 to 64 °C.

Compound `O=C(O)C1CCCCN1Cc1ccc(F)cc1` (stereo not given) returned a melting point of 218 to 220 °C.

Consider `O=C(O)c1ccc(S(=O)(=O)Cl)s1`, for which the melting point lay in the range of 119 to 121 °C.

Take `NC(CNS(=O)(=O)c1ccc(F)cc1)=NO`: the melting point was 148 to 150 °C.

Regarding `Cc1cc(Br)cn2c(C=O)cnc12`, the melting point lay in the range of 152 to 154 °C.

The compound `O=C(O)C1=CCCO1` yielded a melting point of 98 to 100 °C.

As to `Clc1nccc(N2CCOCC2)n1`, the melting point lay within 111 to 113 °C.

The compound `O=C(c1ccc(F)cc1Cl)N1CCNCC1` registered a melting point of 75 to 77 °C.

`FC(F)Oc1ccc(-c2nnc(S)o2)cc1` gave a melting point of 121 to 123 °C.

In the case of `NS(=O)(=O)c1ccc(NC(=O)OCC(F)(F)F)cc1`, the melting point lay within 192 to 194 °C.

For `CC(C)=C(C)C(=O)O`, the melting point fell in the range of 68 to 70 °C.

As to `NS(=O)(=O)CCS(=O)(=O)c1ccc(F)cc1`, the melting point was 173 to 175 °C.

As to `O=C(CCl)N(C1CCCC1)C1CCS(=O)(=O)C1` (stereo not given), the melting point was under 17 °C.

Compound `O=C(CCl)N(c1ccccc1)C1CCS(=O)(=O)C1` (stereo not given) showed a melting point of 208 to 210 °C.

The compound `COc1ccc(Cl)cc1NC(=O)CCN` displayed a melting point of 66 to 68 °C.

The compound `O=C(O)c1cc2cccc(Br)c2o1` came in with a melting point of 256 to 258 °C.

In turn, `CCOC(=O)c1c(N)sc2c1CCN(CC)C2` displayed a melting point of 83 to 87 °C.

On to `N#CCc1ccccc1CC(=O)O`, for which the melting point was 99 to 101 °C.

`COc1ccc(S(=O)(=O)Cl)cc1C`: the melting point fell in the range of 51 to 53 °C.

`O=C(O)c1ccc(S(=O)(=O)Nc2ccccc2Oc2ccccc2)cc1` registered a melting point of 204 to 206 °C.

`N#Cc1cc2ccccn2c1` had a melting point of 68 to 70 °C.

`CC(=O)c1ccc(OC2CCCCC2)cc1`: the melting point lay in the range of 74 to 76 °C.

`O=S1(=O)CCN1`: the melting point lay within 51 to 53 °C.

For `Cc1ccc(Cl)c(OC(C)C(=O)O)c1` (stereo not given), the melting point is 137 to 139 °C.

As for `O=[N+]([O-])c1c(Cl)nc2ccccn12`, the melting point was 170 to 172 °C.

Regarding `NC(=NO)c1ccccc1Cl`, the melting point lay in the range of 87 to 91 °C.

The compound `Cc1cn2c(n1)CNCC2` displayed a melting point of 100 to 102 °C.

Compound `COC(=O)C(F)c1nc2ccccc2c(=O)[nH]1` (stereo not given) yielded a melting point of 147 to 160 °C.

In the case of `CSc1ccc(C=CC(=O)O)cc1`, the melting point is 177 to 179 °C.

In the case of `COc1ccc(-c2nnc(S)o2)cc1OC`, the melting point fell in the range of 251 to 253 °C.

For `NNS(=O)(=O)c1ccc(Cl)c([N+](=O)[O-])c1`, the melting point was in the range of 126 to 128 °C.

For the compound `Cc1cccc(Cl)c1OCC(=O)O`, the melting point was 99 to 101 °C.

The compound `O=C(O)C1(S(=O)(=O)c2ccc(Cl)cc2)CCCC1` showed a melting point of 83 to 85 °C.

On to `OCc1nc(Cc2ccc(F)cc2)no1`, for which the melting point was 53 to 55 °C.

The compound `N#CCC(=O)c1ccc2c(c1)OCO2` yielded a melting point of 134 to 136 °C.

`NNC(=O)c1ccc(COc2ccccc2)cc1` returned a melting point of 148 to 150 °C.

On to `C#CCNC(=O)NC1(C(=O)O)CCc2ccccc21` (stereo not given), for which the melting point was 181 to 183 °C.

`O=C(O)C1(c2cccc(C(F)(F)F)c2)CCCC1` showed a melting point of 111 to 113 °C.

Compound `CC(C)(C)c1ccc(-c2csc(N)n2)cc1` displayed a melting point of 127 to 129 °C.

With `O=c1[nH]c2cc(Br)cc(Cl)c2o1`, the melting point fell in the range of 189 to 191 °C.

Take `OCCNc1ccc(Br)cc1`: the melting point lay in the range of 80 to 82 °C.

With `Cc1nc(CSc2ccc(C(=O)O)cc2)cs1`, the melting point is 87 to 90 °C.

In the case of `CC(C)N(C)S(=O)(=O)c1ccc(NC(=O)CCl)cc1`, the melting point lay within 118 to 120 °C.

As for `O=S(=O)(c1ccc2c(c1)NCC2)N1CCCC1`, the melting point is 181 to 183 °C.

For the compound `COC(=O)CNS(=O)(=O)c1ccc(N)cc1`, the melting point was 78 to 80 °C.

`CCC(Oc1cccc(C)c1)C(=O)O` (stereo not given): the melting point lay within 72 to 74 °C.

Compound `Cn1c(C=O)nc2c1c(=O)[nH]c(=O)n2C` yielded a melting point of 284 to 286 °C.

Compound `Cc1ccnc2c1NC(=O)CN2` yielded a melting point of 216 to 218 °C.

For the compound `Cc1nc(N)c(I)cc1Br`, the melting point fell in the range of 135 to 137 °C.

`COC(=O)c1ccc(NC(=O)CCCCl)cc1` displayed a melting point of 128 to 130 °C.

Compound `CC(C)(C)C=CC(=O)O` had a melting point of 60 to 62 °C.

As to `Cc1ccc(C(C)(C)C)cc1S(N)(=O)=O`, the melting point was in the range of 138 to 140 °C.

`COc1ccc(CNc2ccncc2)cc1` yielded a melting point of 126 to 128 °C.

`CCOC(=O)/C(C#N)=C\Nc1ccc(Cl)cc1` showed a melting point of 141 to 143 °C.

In turn, `CC(C)NC(=O)CC1(C(=O)O)CCCC1` yielded a melting point of 139 to 141 °C.

`Cc1cc2n(n1)C(=O)C(C)C(=O)N2` (stereo not given) yielded a melting point of 288 to 290 °C.

As for `O=C(O)Cc1ccn(-c2ccc(F)cc2)n1`, the melting point was in the range of 97 to 99 °C.

Compound `CC(NC(=O)CCC(=O)O)C(=O)c1ccc(Br)cc1` (stereo not given) showed a melting point of 136 to 138 °C.

As to `Nc1nc2cc3c(cc2s1)OCCCO3`, the melting point was 218 to 220 °C.

Compound `CC(NC(=O)CCl)c1ccccc1` (stereo not given) registered a melting point of 75 to 77 °C.

The compound `COc1cc(NC(=O)C2CC2)c(C(=O)O)cc1OC` yielded a melting point of 236 to 238 °C.

In the case of `Cc1ccc(NC(=O)CCl)c(Br)c1`, the melting point fell in the range of 169 to 171 °C.

Take `Nc1nc2cc(F)c(F)cc2s1`: the melting point lay in the range of 171 to 173 °C.

On to `COc1cc([N+](=O)[O-])ccc1NC(=O)CCCl`, for which the melting point was 144 to 146 °C.

As to `Cc1cc(Br)cc(Cl)c1C(=O)O`, the melting point was 154 to 156 °C.

In turn, `Cc1ccc(NS(=O)(=O)c2cccc(C(=O)O)c2)c(C)c1` had a melting point of 194 to 196 °C.

Turning to `CCC1(C(=O)O)CCN(C(=O)c2ccccc2)CC1`, the melting point is 154 to 156 °C.

`CC(=O)N1CCc2cc(C(=O)C(C)Cl)ccc21` (stereo not given) had a melting point of 129 to 131 °C.

For `CC(C)(c1ccccc1)c1nnc(N)s1`, the melting point lay in the range of 149 to 151 °C.

The compound `Cc1n[nH]c(SCC(=O)O)n1` returned a melting point of 228 to 230 °C.

The compound `Cc1ccc(OCc2nc(C(=O)NC3=NCCS3)cs2)cc1` gave a melting point of 200 to 202 °C.

`Nc1nc(-c2ccc3ccccc3n2)n[nH]1` came in with a melting point of 297 to 299 °C.

`N#Cc1cccc(Cc2cnc(N)s2)c1` displayed a melting point of 143 to 145 °C.

The compound `CC(C)(C)NS(=O)(=O)Cc1cccc(C(=O)O)c1` came in with a melting point of 199 to 201 °C.

`NS(=O)(=O)N1CCc2ccccc2C1` registered a melting point of 159 to 161 °C.

The compound `O=CNc1cc([N+](=O)[O-])ccc1Cl` came in with a melting point of 183 to 185 °C.

In the case of `O=C(O)C1CCCCC1C(=O)N1CCc2ccccc21` (stereo not given), the melting point was in the range of 123 to 125 °C.

For `CCN(CC)S(=O)(=O)c1ccc(Oc2ccc(C=O)cc2OC)c([N+](=O)[O-])c1`, the melting point fell in the range of 134 to 136 °C.

Regarding `NC(=O)c1ccn(-c2cccc(N)c2)n1`, the melting point was in the range of 177 to 179 °C.

Compound `O=C(Nc1ccccc1C(=O)O)c1ccc(Cl)cc1` came in with a melting point of 208 to 210 °C.

Regarding `Cc1cc(C)n2c(C=O)cnc2n1`, the melting point lay in the range of 169 to 171 °C.

In turn, `CC1Cc2ccccc2N1Cc1ccoc1C(=O)O` (stereo not given) came in with a melting point of 170 to 172 °C.

In the case of `CC(C)n1ncc2c(C(=O)O)cc(-c3ccco3)nc21`, the melting point fell in the range of 275 to 277 °C.

Consider `CN(c1ccccc1N)S(C)(=O)=O`, for which the melting point was 138 to 140 °C.

For the compound `Nc1ccc(S(=O)(=O)Nc2ccccc2)cc1`, the melting point lay in the range of 176 to 178 °C.

For `Cc1cc(=O)[nH]c(-c2cccc(N)c2)n1`, the melting point lay in the range of 212 to 214 °C.

Compound `O=C(O)c1ccccc1SC(F)F` displayed a melting point of 114 to 116 °C.

Turning to `O=C(O)C1CC1C1CCCCC1` (stereo not given), the melting point was in the range of 52 to 54 °C.

`O=Cc1cn(-c2ccccc2)nc1-c1cccs1` registered a melting point of 90 to 92 °C.

With `COc1ccc([N+](=O)[O-])cc1CN`, the melting point was in the range of 101 to 103 °C.

`Cc1n[nH]c(C)c1CCO` returned a melting point of 122 to 124 °C.

Take `Cc1ccccc1-c1cc(N)[nH]n1`: the melting point is 168 to 170 °C.

In turn, `O=C(O)CNc1ncccn1` came in with a melting point of 169 to 171 °C.

Turning to `Nc1ccc(-c2nc3cc(F)ccc3[nH]2)cc1`, the melting point was 194 to 196 °C.

Compound `CN(C)C(=O)Cc1ccccc1N` returned a melting point of 69 to 71 °C.

For the compound `CCOC(=O)c1oc2c(c1C)C(=O)CCC2`, the melting point lay in the range of 104 to 106 °C.

For `O=C1CCS(=O)(=O)c2cc(F)c(F)cc21`, the melting point is 149 to 151 °C.

In turn, `O=c1[nH]cnc2c1nnn2-c1ccccc1` displayed a melting point of 279 to 281 °C.

Compound `COc1ccc(C(=O)O)cc1S(=O)(=O)N1CCCC1` registered a melting point of 218 to 220 °C.

`COc1ccc(-c2[nH]c3ccccc3c2CCC(=O)O)c(OC)c1` displayed a melting point of 167 to 169 °C.

`Cc1nc2ccc(Br)cc2c(Cl)c1C` displayed a melting point of 99 to 101 °C.

Compound `O=C(O)c1ccnc(SCC(F)(F)F)c1` displayed a melting point of 104 to 106 °C.

Turning to `CCOC(=O)c1c(C)oc2nc(CCl)nc(N)c12`, the melting point lay in the range of 191 to 195 °C.

The compound `Oc1cccc2cn[nH]c12` yielded a melting point of 181 to 183 °C.

Take `CCOc1ccc(Cl)cc1C(C)=O`: the melting point is 79 to 81 °C.

`CN(CCCNC(=O)CCl)S(C)(=O)=O` gave a melting point of 79 to 81 °C.

On to `CCCCC1(c2ccc(F)cc2)NC(=O)NC1=O` (stereo not given), for which the melting point was in the range of 113 to 115 °C.

Regarding `Oc1ccc(-n2cnc3ccccc32)cc1`, the melting point fell in the range of 278 to 280 °C.

In turn, `Nc1ccc(Cl)c(S(=O)(=O)N2CCCCC2)c1` yielded a melting point of 92 to 96 °C.

For the compound `O=C1Nc2c(cccc2C(F)(F)F)C1=O`, the melting point lay within 187 to 189 °C.

The compound `c1ccc(-c2nc[nH]n2)nc1` registered a melting point of 159 to 161 °C.

`O=C(O)CN1CCOc2ccc(Cl)cc21` returned a melting point of 156 to 158 °C.

Turning to `Nc1ccc2[nH]c(CCN3CCOCC3)nc2c1`, the melting point is 201 to 203 °C.

With `Oc1ncnc(Cl)c1I`, the melting point fell in the range of 274 to 276 °C.

The compound `O=C(O)c1ccccc1OCc1ccc(Cl)cc1Cl` came in with a melting point of 162 to 164 °C.

As to `NS(=O)(=O)c1c[nH]cn1`, the melting point lay within 232 to 234 °C.

In turn, `CC(C)c1ccc(C2(O)CCC(=O)CC2)cc1` registered a melting point of 134 to 136 °C.

Regarding `OCCNc1ccncc1`, the melting point was in the range of 110 to 112 °C.

For the compound `Nc1cc(C2CCCC2)nn1-c1ccccc1`, the melting point lay in the range of 80 to 82 °C.

As to `O=C(O)c1cc(=O)[nH]c2ccc([N+](=O)[O-])cc12`, the melting point lay within 375 to 377 °C.

The values above are taken from a melting point compilation (Tetko et al.).
